These results are taken from patent US4603139A, “Bicycle compounds, processes for their preparation and pharmaceutical formulations containing compounds” (Burroughs Wellcome Co., priority 1981, dated 1986).

Converted amounts (≈) assume the structure as drawn. Counter-ions that a name gives are not always drawn.

Data set [1] deals with anaesthetised, open-chest beagles. The data set can be described thus: in vivo inotropic and vasodilatory activity. The conditions noted are these: Canis lupus familiaris, bolus intravenous, 0.003-3.0 mg/kg; for ED50: increase in dp/dt of left ventricular pressure; for ED30: vasodilatory activity. As to the method: The compounds of Examples 1,2 and 21 were tested in comparison with amrinone and […]. […] This is accompanied by a dose-related increase in aortic blood flow, and a fall in systemic blood pressure (see Table below).

Data set [2] concerns right ventricular papillary muscle. The data set can be described thus: in vitro inotropic activity (isolated right ventricular papillary muscle). The class given is cell-based, guinea-pig. As to conditions: 75% increase in basal contractile force (Fc), carazolol 5×10^-8 M present, 34° C., cumulative additions; for EC75: Cavia porcellus, read-out: Potency for 75% increase Fc lying within the range. The method, then:
The heart was rapidly excised and washed with Krebs-Henesleit solution containing the β-adrenoceptor antagonist carazolol (5×10^-8 M) and gassed with 95% O2 : 5% CO2 at 34° C. The heat was transferred to a petri dish containing the same buffer kept at a constant temperature (34° C.) throughout the dissection. Fresh buffer was used for each dissection and washings were discarded after use. A single right ventricular papillary muscle was employed from each heart; the tendinous end ligated to a stainless steel hook and the lower end ligated and cut away from the ventricle wall and attached to a perspex clamp such that the tissue was in contact with a platimum punctate electrode. The stainless steel hook was suspended from a Grass FT.03 transducer which recorded isometric tension. The preparation was placed in a 20 ml pyrex organ bath containing buffer gassed with 95% O2 : 5% CO2 and maintained at 34° C. 500 mg loading tension was applied to the preparation. Stimulation was effected by rectangular pulses of Imsec duration at 1.5 Hz at 30% above the threshold voltage (1-5 volts) by a SRI stimulator. The transducer inputs were coupled to a potentiometric recording device by a 6-channel Grass transducer coupler. After 90 minutes, preparations unable to sustain uniform contractions beyond this period were rejected.

The test system of data set [3] is myocardial β-adrenoceptors. The conditions noted are these: Brutsaert et al 1982; Pouleur et al 1982; cited from earlier work.
Data set [4] has as its system myocardial phosphodiesterase. As to conditions: Diederan and Wiesenberger, 1981; cited from earlier work.
A further data set deals with ischaemic heart. The data set can be described thus: ventricular vulnerability to arrythmias in the ischaemic heart. The class given is in vivo.
Data set [5] concerns ADP-induced platelet aggregation. The data set can be described thus: ex vivo inhibition of platelet aggregation. As to conditions: Macaca mulatta, iv, anaesthetised rhesus monkey, read-out: effective dose causing 50% inhibition of aggregation. The class given is in vivo. As to the method: Rhesus monkeys of both sexes (7.3-9 kg, body weight) were sedated with phencyclidine, subsequently anaesthetised with thiopentone and maintained with sodium pentobarbitone. Catheters were placed in the left femoral artery to record blood pressure and in the left femoral vein for administration of drugs. A further catheter was placed in the contralateral femoral artery for the removal of blood samples. Heart rate was recorded from ECG (standard lead II). A left ventricular catheter was introduced via the left carotid artery to measure left ventricular pressure. […] Rectal temperature of the anaesthetised monkey was maintained at 37°-38° C. via a heated table-pad.
Blood samples (3 ml) were withdrawn into syringes containing trisodium citrate (0.315% w/v final concentration), and spun for […]. The platelet rich-plasma was transferred to a Born-type aggregometer and incubated for 1 min (at 37° C.) prior to the addition of sufficient ADP to induce sub-maximal (1.5-3 μM) or near maximal (8-12 μM) aggregation. Inhibition of aggregation was calculated with reference to at least 2 control samples prior to intravenous infusion of compound A. The sequence of administration of compound A was randomized between experiments. The effective dose of compound A which caused 50% inhibition of aggregation is 1.0 mg/kg i.v. (approximately).

Data set [6] shares this test system. Put plainly: in vitro inhibition of platelet aggregation. It is filed as cell-based, rhesus monkey. The conditions noted are these: Macaca mulatta, 1 min, platelet-rich plasma, 37° C., read-out: ID50 (dose causing 50% inhibition of platelet aggregation). As to the method: Blood was freshly collected into siliconized (Siloclad; Clay Adams) plastic (Sterlin Ltd.) tubes containing trisodium citrate (3.15%; 0.1 volume with 0.9 volume blood) and centrifuged (200 g for 15 min) at room temperature. The platelet-rich plasma (PRP) was withdrawn into plastic containers and kept at room temperature. Inhibition of platelet aggregation was determined in a Born-type aggregometer by incubating aliquots (0.5 ml) of the PRP for 1 min at 37° C. with or without compound A prior to addition of sufficient adenosine diphosphate (ADP). Dose-inhibition curves were constructed for each compound and the ID50 (dose causing 50% inhibition) was calculated as the dose required to reduce the aggregation to 50% of its control amplitude. The ID50 for compound A is 1 mg/ml (approximately).

For the next data set, the system named is myocardial injury. The data set can be described thus: myocardial injury following selective ligation of the coronary artery in vivo.
The test system of the next data set is phosphodiesterase. The data set can be described thus: phosphodiesterase inhibitory activity. The conditions noted are these: 100 μM, 1 mM and 10 mM; 3H-cAMP 5 uM; guinea pig heart homogenate; 37° C., 30 minutes. The class given is biochemical. As to the method:
The determination of phosphodiesterase inhibitory activity was effected by a procedure based on that of Thompson and Appleman (Biochme., 10, 311 (1971)). ^3 H-cAMP (5 uM) is incubated at 37° C. for 30 minutes with the 1000Xg supernatent of a 10% (w/v) homogenate of guinea pig heart in 50 mM-Tris/HCL pH7+5 mM-mgCI2 in either the presence or the absence of the compound of Example 21 which, in the former case, is dissolved in Tris buffer to give final concentrations of 100 uM, 1 mM and 10 mM. Phosphodiesterase enzyme in the homogenate hydrolyses ^3 H-cAMP to ^3 H-5'-AMP which is further converted to ^3 H-adenosine by a 5'-nucleotidase added to the incubation mixture. After a period of incubation unchanged ^3 H-cAMP is removed by adding ion exchange resin to the mixture and centrifuging. The ^3 H in the supernatent is assayed by liquid scintillation counting and gives a quantitative measure of adenosine formation (i.e. cAMP hydrolysis). Comparison of the ^3 H-adenosine formed in the presence and absence of test compound gives a measure of the PDE-inhibitory activity of the compound.

In data set [1], `COc1ccc(-c2nc3cnccc3[nH]2)c(OC)c1` [Example 1, 2-(2,4-Dimethoxyphenyl)-1H-imidazo[4,5-c]pyridine] displayed an ED50 of 0.13 mg/kg and an ED30 of 0.24 mg/kg. Also, the EC75 in [2] was in the range of 0.1 to 1 mM. Regarding `COc1cc([S+](C)[O-])ccc1-c1nc2ncccc2[nH]1` (stereo not drawn) [Vardax, 2-[(2-methoxy-4-methylsulphinyl)phenyl]-1H-imidazo[4,5-b]pyridine, reference compound], in [1], the ED50 stood at 1 mg/kg and the ED30 was 2.11 mg/kg. Further, in [3], the “contribution of myocardial β-adrenoceptor stimulation to positive inotropic stimulation” value is “at least part of the positive inotropic stimulation”. For the same compound, in data set [4], the “inhibition of myocardial phosphodiesterase” value was “effective inhibitor of myocardial phosphodiesterase”. As for `COc1ccc(-c2nc3cnccc3[nH]2)cc1OC` [Example 8, 2-(3,4-dimethoxyphenyl)-1H-imidazo[4,5-c]pyridine dihydrochloride], the EC75 in data set [2] lay in the range of 0.01 to 0.1 mM. The same measure, in the same setting: as for `COc1ccc(-c2nc3c[n+]([O-])ccc3[nH]2)c(OC)c1` [Example 38, 2-(2,4-Dimethoxyphenyl)-1H-imidazo[4,5-c]pyridineN^5-oxide hydrate], the figure is more than 1 mM; as for `COc1cc(S(C)(=O)=O)ccc1-c1nc2cnccc2[nH]1` [Example 32, 2-(2-Methoxy-4-methylsulphonylphenyl)-1H-imidazo[4,5-c]pyridine], 0.1 to 1 mM. As to `COc1ccc(-c2nc3cnccc3[nH]2)cc1SC` [Example 34, 2-(3-Methylthio-4-methoxyphenyl)-1H-imidazo-[4,5-c]pyridine dihydrochloride], the EC75 in data set [2] lay within 0.1 to 1 mM.

With `COc1ccc(-c2nc3cnccc3n2C)c(OC)c1` [Example 41, 1-Methyl-2-(2,4-dimethoxyphenyl)-1H-imidazo[4,5-c]pyridine], in [2], the EC75 was more than 1 mM. Regarding “2-(2-methylsulphinyl)-1H-imidazo[4,5-c]pyridine hydrochloride [Example 50]”, the “Potency for 75% increase Fc lying within the range” value in data set [2] is listed as > 10^-3 M. With `CSc1ccccc1-c1nc2cnccc2[nH]1` [Example 29, 2-(2-methylthiophenyl)-1H-imidazo[4,5-c]pyridine hydrochloride], in data set [2], the EC75 lay within 0.1 to 1 mM. The same measure, in the same setting: as for `COc1ccc(-c2nc3cnccc3[nH]2)cc1[S+](C)[O-]` (stereo not drawn) [Example 35, 2-(3-Methylsulphinyl-4-methoxyphenyl)-1H-imidazo[4,5-c]pyridine], the figure is more than 1 mM. In data set [1], `COc1ccc(-c2nc3cnccc3[nH]2)cc1.Cl.Cl` [Example 2, 2-(4-Methoxyphenyl)-1H-imidazo[4,5-c]pyridine dihydrochloride] returned an ED50 of 2 mg/kg and an ED30 of 5.1 mg/kg. For the compound `COc1cc([S+](C)[O-])ccc1-c1nc2cnccc2[nH]1.Cl` (stereo not drawn) [Example 23, 2-(2-Methoxy-4-methylsulphinylphenyl)-1H-imidazo[4,5-c]pyridine hydrochloride], in data set [2], the “Potency for 75% increase Fc lying within the range” value is given as 10^-4 -10^-3 M. For the compound `COc1cc(-c2nc3cnccc3[nH]2)cc(OC)c1OC` [Example 3, 2-(3,4,5-trimethoxyphenyl)-1H-imidazo[4,5-c]pyridine dihydrochloride], the EC75 in data set [2] was more than 1 mM. Still for that read-out and setting: the figure for `COc1ccc(-c2nc3ccncc3n2C)c(OC)c1` [Example 40, 3-Methyl-2-(2,4-dimethoxyphenyl)-1H-imidazo[4,5-c]pyridine] is more than 1 mM; for `COc1ccc(-c2nc3cnccc3[nH]2)c([S+](C)[O-])c1` (stereo not drawn) [Example 22, 2-(2-Methylsulphinyl-4-methoxyphenyl)-1H-imidazo[4,5-c]pyridine hydrochloride] it is more than 1 mM.

`COc1cc(Cl)ccc1-c1nc2cnccc2[nH]1` [Example 10, 2-(2-methoxy-4-chlorophenyl)-1H-imidazo[4,5-c]pyridine hydrochloride]: the EC75 in [2] fell in the range of 0.01 to 0.1 mM.

For the compound `COc1ccccc1-c1nc2cnccc2[nH]1` [Example 7, 2-(2-methoxyphenyl)-1H-imidazo[4,5-c]pyridine hydrochloride], the EC75 in data set [2] is 0.1 to 1 mM. In data set [1], `COc1cc([S+](C)[O-])ccc1-c1nc2cnccc2[nH]1` (stereo not drawn) [Example 21, 2-(2-Methoxy-4-methylsulphinylphenyl)-1H-imidazo[4,5-c]pyridine] came in with an ED50 of 0.063 mg/kg and an ED30 of 0.19 mg/kg. Besides, in the data set with ischaemic heart, the “effect on ventricular vulnerability to arrythmias” value is “does not increase ventricular vulnerability to arrythmias”. Besides, in [5], the ED50 is approximately 1 mg/kg. Also, the IC50 in [6] was approximately 1000 µg/mL (≈ 3.48 mM). Also, the “effect on myocardial injury” value in the data set with myocardial injury is recorded as “does not exacerbate myocardial injury”. For the same compound, the PDE inhibitory activity result with phosphodiesterase is given as “no PDE inhibitory activity”. Besides, the EC75 in data set [2] was 0.1 to 1 mM. Take `Nc1cc(-c2ccncc2)c[nH]c1=O` [Amrinone, reference compound]: in data set [1], the ED50 came to 1 mg/kg and the ED30 is 2 mg/kg.
